pIC50, pKi: −log10 of the molar value.
Assays:
Keap1/Nrf2 [1] = target: T1, Keap1/Nrf2 (Homo sapiens, UniProt Q14145); assay: Inhibition of Keap1-Nrf2 protein-protein interaction (unknown origin) by fluorescence polarization assay
Keap1/Nrf2 [2] = target: T1, Keap1/Nrf2; assay: (§1) Inhibition of Keap1-Nrf2 protein-protein interaction (unknown origin) assessed as inhibition constant by TR-FRET assay
Keap1/Nrf2 [3] = target: T1, Keap1/Nrf2; assay: Inhibition of Keap1-Nrf2 protein-protein interaction (unknown origin) assessed as inhibition constant by fluorescence polarization assay
Keap1/Nrf2 [4] = target: T2, Keap1/Nrf2 (Homo sapiens, UniProt Q16236+Q14145); assay: Inhibition of Keap1-Nrf2 protein-protein interaction in human NCM460D cells assessed as fold induction at 1 to 100 uM in NQO1 mRNA level incubated for 24 hrs by RT-qPCR analysis; assay type: cell-based; settings: dose 1-100 µM
Target sequence in this assay (Q14145 whole entry, looked up): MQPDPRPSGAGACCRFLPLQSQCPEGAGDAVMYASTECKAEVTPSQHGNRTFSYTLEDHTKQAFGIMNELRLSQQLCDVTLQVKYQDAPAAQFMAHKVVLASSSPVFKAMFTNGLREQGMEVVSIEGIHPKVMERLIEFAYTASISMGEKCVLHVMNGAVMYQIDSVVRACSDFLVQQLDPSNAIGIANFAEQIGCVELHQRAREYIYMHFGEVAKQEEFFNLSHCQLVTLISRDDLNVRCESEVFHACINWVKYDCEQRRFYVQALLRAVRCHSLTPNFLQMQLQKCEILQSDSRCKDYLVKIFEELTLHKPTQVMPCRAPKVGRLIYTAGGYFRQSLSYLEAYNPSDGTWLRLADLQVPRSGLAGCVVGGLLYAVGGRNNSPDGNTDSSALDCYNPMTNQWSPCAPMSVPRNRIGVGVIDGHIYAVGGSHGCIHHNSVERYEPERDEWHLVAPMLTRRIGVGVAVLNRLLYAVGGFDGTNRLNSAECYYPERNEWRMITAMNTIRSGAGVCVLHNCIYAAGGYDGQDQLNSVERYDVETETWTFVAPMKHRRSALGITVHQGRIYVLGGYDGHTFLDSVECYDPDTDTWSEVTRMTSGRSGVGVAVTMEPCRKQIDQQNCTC
Target sequence in this assay (Q16236 whole entry, looked up): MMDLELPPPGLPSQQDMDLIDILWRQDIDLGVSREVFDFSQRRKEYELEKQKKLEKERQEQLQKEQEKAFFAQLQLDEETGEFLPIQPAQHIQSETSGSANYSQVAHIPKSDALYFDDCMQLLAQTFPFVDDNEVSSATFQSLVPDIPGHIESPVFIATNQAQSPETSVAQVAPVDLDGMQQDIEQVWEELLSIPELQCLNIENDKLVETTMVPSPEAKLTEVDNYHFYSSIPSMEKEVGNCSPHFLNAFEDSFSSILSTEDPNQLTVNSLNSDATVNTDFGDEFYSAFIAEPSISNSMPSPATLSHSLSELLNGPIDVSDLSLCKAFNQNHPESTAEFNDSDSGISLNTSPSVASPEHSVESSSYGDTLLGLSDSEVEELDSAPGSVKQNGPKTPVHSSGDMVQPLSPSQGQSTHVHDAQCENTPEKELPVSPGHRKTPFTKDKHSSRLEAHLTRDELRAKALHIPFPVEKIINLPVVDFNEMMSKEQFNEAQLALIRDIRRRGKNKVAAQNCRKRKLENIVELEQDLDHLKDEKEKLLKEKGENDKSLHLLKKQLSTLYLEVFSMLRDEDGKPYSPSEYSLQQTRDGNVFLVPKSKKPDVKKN

Keap1/Nrf2 [5] = target: T1, Keap1/Nrf2; assay: Inhibition of Keap1-Nrf2 protein-protein interaction (unknown origin) by TR-FRET assay
Keap1/Nrf2 [6] = target: T2, Keap1/Nrf2; assay: as §1
Target sequence in this assay (Q16236 whole entry): as the sequence (Q16236 whole entry, looked up) above
Target sequence in this assay (Q14145 whole entry): as the sequence (Q14145 whole entry, looked up) above

T1 sequence (Q16236 whole entry): as the sequence (Q16236 whole entry, looked up) above
T1 sequence (Q14145 whole entry): as the sequence (Q14145 whole entry, looked up) above

pIC50 (Keap1/Nrf2 [1])	pKi (Keap1/Nrf2 [2])	pKi (Keap1/Nrf2 [3])	Compound	other results
6.23	6.97		COc1ccc(S(=O)(=O)N(CC(=O)O)c2ccc(N(CC(=O)O)S(=O)(=O)c3ccc(OC)cc3)c(OCC(=O)c3ccccc3)c2)cc1	
6.39		7.17	Cc1ccc(S(=O)(=O)N(CC(=O)O)c2ccc(N(CC(=O)O)S(=O)(=O)c3ccc(C)cc3)c(OS(=O)(=O)c3c(C)cc(C)cc3C)c2)cc1	
6.12	6.85		COc1ccc(S(=O)(=O)N(CC(=O)O)c2ccc(N(CC(=O)O)S(=O)(=O)c3ccc(OC)cc3)c(OCC(=O)N3CCC(c4ccccc4)CC3)c2)cc1	
5.75		6.45	Cc1ccc(S(=O)(=O)N(CC(=O)O)c2ccc(N(CC(=O)O)S(=O)(=O)c3ccc(C)cc3)c(NCC(=O)O)c2)cc1	
5.11	5.80		COc1ccc(S(=O)(=O)N(CC(=O)O)c2ccc(N(CC(=O)O)S(=O)(=O)c3ccc(OC)cc3)c(OCC(=O)Nc3ccccc3)c2)cc1	
	7.29		COc1ccc(S(=O)(=O)N(CC(=O)O)c2ccc(N(CC(=O)O)S(=O)(=O)c3ccc(OC)cc3)c(OS(=O)(=O)c3c(C)cc(C)cc3C)c2)cc1	
7.16	8.04	~9.00	Cc1ccc(S(=O)(=O)N(CC(=O)O)c2cc(CCC(=O)O)c(N(CC(=O)O)S(=O)(=O)c3ccc(C)cc3)c3ccccc23)cc1	FC (Keap1/Nrf2 [4]): 8; pIC50 (Keap1/Nrf2 [5]): 7.65
6.25		7.00	Cc1ccc(S(=O)(=O)N(CC(=O)O)c2ccc(N(CC(=O)O)S(=O)(=O)c3ccc(C)cc3)c(CCC(=O)O)c2)cc1	
			Cc1ccc(S(=O)(=O)N(CC(=O)O)c2cc(OCC(=O)O)c(N(CC(=O)O)S(=O)(=O)c3ccc(C)cc3)c3ccccc23)cc1	FC (Keap1/Nrf2 [4]): 15
6.87	7.49	7.94	Cc1ccc(S(=O)(=O)N(CC(=O)O)c2ccc(N(CC(=O)O)S(=O)(=O)c3ccc(C)cc3)c(O[C@@H](C)C(=O)O)c2)cc1	pIC50 (Keap1/Nrf2 [5]): 7.14
			Cc1ccc(S(=O)(=O)N(CC(=O)O)c2ccc(N(CC(=O)O)S(=O)(=O)c3ccc(C)cc3)c(O[C@H](C)C(=O)O)c2)cc1	pKi (Keap1/Nrf2 [6]): 7.38
6.40	7.18		COc1ccc(S(=O)(=O)N(CC(=O)O)c2ccc(N(CC(=O)O)S(=O)(=O)c3ccc(OC)cc3)c(OCC(=O)N3CCOCC3)c2)cc1	
5.65	6.34		COc1ccc(S(=O)(=O)N(CC(=O)O)c2ccc(N(CC(=O)O)S(=O)(=O)c3ccc(OC)cc3)c(OCC(=O)N3CCN(C)CC3)c2)cc1	
5.41	6.11		COc1ccc(S(=O)(=O)N(CC(=O)O)c2ccc(N(CC(=O)O)S(=O)(=O)c3ccc(OC)cc3)c(C(=O)Oc3ccccc3)c2)cc1	
6.36	7.13		COc1ccc(S(=O)(=O)N(CC(=O)O)c2ccc(N(CC(=O)O)S(=O)(=O)c3ccc(OC)cc3)c(OS(=O)(=O)c3ccccc3)c2)cc1	
5.79	6.50		COc1ccc(S(=O)(=O)N(CC(=O)O)c2ccc(N(CC(=O)O)S(=O)(=O)c3ccc(OC)cc3)c(C(=O)OCc3ccccc3)c2)cc1	
	7.11		COc1ccc(S(=O)(=O)N(CC(=O)O)c2ccc(N(CC(=O)O)S(=O)(=O)c3ccc(OC)cc3)c(OS(=O)(=O)c3ccc(-c4ccccc4)cc3)c2)cc1	
6.39		7.17	Cc1ccc(S(=O)(=O)N(CC(=O)O)c2ccc(N(CC(=O)O)S(=O)(=O)c3ccc(C)cc3)c(OCc3nnn[nH]3)c2)cc1	
		7.12	Cc1ccc(S(=O)(=O)N(CC(=O)O)c2ccc(N(CC(=O)O)S(=O)(=O)c3ccc(C)cc3)c(OCc3ccc(F)cc3)c2)cc1	
6.64		7.51	Cc1ccc(S(=O)(=O)N(CC(=O)O)c2ccc(N(CC(=O)O)S(=O)(=O)c3ccc(C)cc3)c(OCCN3C(=O)c4ccccc4C3=O)c2)cc1	
	7.09		COc1ccc(S(=O)(=O)N(CC(=O)O)c2ccc(N(CC(=O)O)S(=O)(=O)c3ccc(OC)cc3)c(OS(=O)(=O)Cc3ccccc3)c2)cc1	
6.19		6.94	Cc1ccc(S(=O)(=O)N(CC(=O)O)c2ccc(N(CC(=O)O)S(=O)(=O)c3ccc(C)cc3)c(OCC(=O)N3CCOCC3)c2)cc1	
5.60	6.30		COc1ccc(S(=O)(=O)N(CC(=O)O)c2ccc(N(CC(=O)O)S(=O)(=O)c3ccc(OC)cc3)c(OCCN3CCOCC3)c2)cc1	
5.75	6.45		COc1ccc(S(=O)(=O)N(CC(=O)O)c2ccc(N(CC(=O)O)S(=O)(=O)c3ccc(OC)cc3)c(OC(=O)c3ccccc3)c2)cc1	

From ChEMBL document CHEMBL5528026, “Structural modification of C2-substituents on 1,4-bis(arylsulfonamido)benzene or naphthalene-N,N'-diacetic acid derivatives as potent inhibitors of the Keap1-Nrf2 protein-protein interaction” (Eur J Med Chem, 2024)
